Experimental data as given in patent EP0535241A1, “NOVEL LEUCINE AMINOPEPTIDASE” (SUNTORY LIMITED, priority 1991, dated 1992).

Biological target: T1, leucine aminopeptidase of human placenta origin (PLAP), purified from human retroplacental sera, containing SEQ ID NOs: 1, 2, 3 and 4 (Homo sapiens, UniProt Q9UIQ6)
T1 construct: PLAP was purified by fractionating 900 ml of retroplacental sera by ammonium sulfate fractionation; from tissue; host or cells: human retroplacental sera
Assay: PLAP enzyme assay with L-leucyl-P-nitroanilide as substrate (Lineweaver-Burk plot)
Format: biochemical
Method: An assay of PLAP was carried out according to a method of Kurauchi et al. (Kurauchi, O. et al. Enzyme, 35, p197-205, 1986) using L-leucyl-P-nitroanilide as a substrate. Namely, a substrate adjusted to 1.6 mM of a final concentration was added to a 20 mM Tris-HCl buffer (pH 7.2) (1.0 ml) in the presence of a 20 mM L-methionine, and the mixture was incubated at 37°C for 10 minutes. After finishing the reaction, 3.0 ml of a 1M acetate buffer (pH 4.2) was added to terminate the reaction, and the amount of released P-nitroanilide was measured by absorption of 405 nm. One unit of the enzyme is defined as an activity of the enzyme that releases 1 µ mole of the P-nitroanilide for one minute.

[1] = purified PLAP, calculated according to Lineweaver-Burk plot, 20 mM Tris-HCl buffer (pH 7.2), 37°C

T1 sequence (Q9UIQ6 155-1025 limits assumed): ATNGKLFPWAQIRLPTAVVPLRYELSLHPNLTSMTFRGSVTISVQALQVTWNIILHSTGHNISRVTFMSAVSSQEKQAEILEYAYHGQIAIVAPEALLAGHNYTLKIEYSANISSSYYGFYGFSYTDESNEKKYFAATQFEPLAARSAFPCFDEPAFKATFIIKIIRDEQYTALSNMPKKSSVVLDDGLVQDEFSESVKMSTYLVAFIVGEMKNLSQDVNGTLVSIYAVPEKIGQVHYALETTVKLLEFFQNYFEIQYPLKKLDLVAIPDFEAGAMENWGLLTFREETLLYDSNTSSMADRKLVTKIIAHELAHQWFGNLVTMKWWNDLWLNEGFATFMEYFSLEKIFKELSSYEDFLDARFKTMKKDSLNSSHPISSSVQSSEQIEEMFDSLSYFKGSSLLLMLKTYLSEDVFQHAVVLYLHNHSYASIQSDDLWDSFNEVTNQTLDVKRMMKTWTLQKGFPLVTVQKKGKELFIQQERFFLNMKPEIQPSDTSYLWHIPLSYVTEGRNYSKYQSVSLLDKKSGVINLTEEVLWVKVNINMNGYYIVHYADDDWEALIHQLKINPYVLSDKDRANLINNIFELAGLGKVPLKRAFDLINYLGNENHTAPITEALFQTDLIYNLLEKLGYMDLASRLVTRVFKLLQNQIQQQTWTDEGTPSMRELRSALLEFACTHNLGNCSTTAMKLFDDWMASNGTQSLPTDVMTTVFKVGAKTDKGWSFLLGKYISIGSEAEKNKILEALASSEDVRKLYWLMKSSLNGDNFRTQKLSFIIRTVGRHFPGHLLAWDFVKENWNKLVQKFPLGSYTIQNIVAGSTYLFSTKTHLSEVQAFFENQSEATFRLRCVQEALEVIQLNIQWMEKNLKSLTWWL

| Km value for degradation of L-Leucyl-P-nitroanilide [1] | Vmax for degradation of L-Leucyl-P-nitroanilide [1] | Structure (SMILES) | inhibition of L-leucyl-P-nitroanilide degrading activity by L-methionine (assay carried out in the presence of 20 mM L-methionine, substrate 1.6 mM) |
| --- | --- | --- | --- |
|  |  | CSCC[C@H](N)C(=O)O [L-methionine] | not inhibited |
| 4.17 mM | 108 µmol/min/g | CC(C)C[C@H](N)C(=O)Nc1ccc([N+](=O)[O-])cc1 [L-Leucyl-P-nitroanilide] |  |
